“And” between values parts separate entries of the source, which are not always exact repeats. Equal values may be shown once. “Also recorded” adds a separate entry of the source. Values belong to the compound of their own block, whether it stands above or below them.
Experiments:
mouse primary astrocytes = experiment: MTS cell viability assay in mouse primary astrocytes; type: cell-based; conditions: 3 h, concentrations used in permeability studies (MF 1, 10, 20 mM; mitoxantrone 25 µM; corticosterone 150 µM)
Oct-1 = conditions: cited from earlier work; for IC50: read-out: IC50 for 10 µM Metformin Uptake, Oct-1, 10 µM metformin
Oct-2 = conditions: cited from earlier work; for IC50: read-out: IC50 for 10 µM Metformin Uptake, Oct-2, 10 µM metformin
Oct-3 = conditions: cited from earlier work; for IC50: read-out: IC50 for 10 µM Metformin Uptake, Oct-3, 10 µM metformin
bEnd.3 cells = experiment: MTS cell viability assay in bEnd.3 cells
P-GP = target: T1, P-GP (Homo sapiens, UniProt P08183); experiment: P-glycoprotein efflux transporter substrate assay (MDR1-MDCK transwell); type: in vitro ADME
T1 construct: host or cells: MDR1-MDCK (MDCK cells overexpressing MDR1)
Experimental: (§1) For P-GP efflux assay, MDR1-MDCK 12-well transport assay (MB Biosciences LLC, Natick, MA, USA) was used. The cells were maintained in high glucose DMEM media supplied with 10% FBS, non-essential amino acid, penicillin/streptomycin, L-glutamine, and colchicine as recommended by the supplier. After the shipping medium was changed to a fresh MDR1-MDCK cell culture medium, the plate was kept in the incubator for 24 h before performing the experiment. […] The inhibitor was present on both sides of the compartments during pre-incubation of 30 min and during the transport experiment. After 120 min of incubation at 37 °C, samples were collected from the basolateral chamber and quantified by LC-MS/MS method. […] The permeability coefficient (PC, cm/s) was calculated using the published literature method. The PC value from apical (A) to basolateral (B) compartment in the presence and absence of CsA was used to calculate the unidirectional flux ratio (UFR), which is defined by the following equation:(3) UFR=PC, A−to−B+CsA/PC,A−to−B−CsA

P-gp (MDR1) = target: T2, P-gp (MDR1) (Homo sapiens, UniProt P08183); experiment: as above; type: in vitro ADME; conditions: dog, MDR1-MDCK, 10 µM MF, 120 min
T2 construct: host or cells: MDR1-MDCK (MDCK cells overexpressing MDR1)
Experimental: as §1

hOCT2 = conditions: read-out: apparent IC50 of MF for uptake of tracer [14C] MF; cited from earlier work
[1] = human subjects; cited from earlier work
[2] = system: in vitro co-culture model of BBB (bEnd.3 cells and mouse primary astrocytes); experiment: NaF permeability across BBB co-culture (barrier integrity); type: in vitro ADME; conditions: Figure S1
[3] = 3 h, concentrations used in permeability studies (MF 1, 10, 20 mM; mitoxantrone 25 µM; corticosterone 150 µM)
[4] = single transporter-expressing cell line, read-out: apparent Km of saturable MF uptake

T1 sequence (P08183 whole entry): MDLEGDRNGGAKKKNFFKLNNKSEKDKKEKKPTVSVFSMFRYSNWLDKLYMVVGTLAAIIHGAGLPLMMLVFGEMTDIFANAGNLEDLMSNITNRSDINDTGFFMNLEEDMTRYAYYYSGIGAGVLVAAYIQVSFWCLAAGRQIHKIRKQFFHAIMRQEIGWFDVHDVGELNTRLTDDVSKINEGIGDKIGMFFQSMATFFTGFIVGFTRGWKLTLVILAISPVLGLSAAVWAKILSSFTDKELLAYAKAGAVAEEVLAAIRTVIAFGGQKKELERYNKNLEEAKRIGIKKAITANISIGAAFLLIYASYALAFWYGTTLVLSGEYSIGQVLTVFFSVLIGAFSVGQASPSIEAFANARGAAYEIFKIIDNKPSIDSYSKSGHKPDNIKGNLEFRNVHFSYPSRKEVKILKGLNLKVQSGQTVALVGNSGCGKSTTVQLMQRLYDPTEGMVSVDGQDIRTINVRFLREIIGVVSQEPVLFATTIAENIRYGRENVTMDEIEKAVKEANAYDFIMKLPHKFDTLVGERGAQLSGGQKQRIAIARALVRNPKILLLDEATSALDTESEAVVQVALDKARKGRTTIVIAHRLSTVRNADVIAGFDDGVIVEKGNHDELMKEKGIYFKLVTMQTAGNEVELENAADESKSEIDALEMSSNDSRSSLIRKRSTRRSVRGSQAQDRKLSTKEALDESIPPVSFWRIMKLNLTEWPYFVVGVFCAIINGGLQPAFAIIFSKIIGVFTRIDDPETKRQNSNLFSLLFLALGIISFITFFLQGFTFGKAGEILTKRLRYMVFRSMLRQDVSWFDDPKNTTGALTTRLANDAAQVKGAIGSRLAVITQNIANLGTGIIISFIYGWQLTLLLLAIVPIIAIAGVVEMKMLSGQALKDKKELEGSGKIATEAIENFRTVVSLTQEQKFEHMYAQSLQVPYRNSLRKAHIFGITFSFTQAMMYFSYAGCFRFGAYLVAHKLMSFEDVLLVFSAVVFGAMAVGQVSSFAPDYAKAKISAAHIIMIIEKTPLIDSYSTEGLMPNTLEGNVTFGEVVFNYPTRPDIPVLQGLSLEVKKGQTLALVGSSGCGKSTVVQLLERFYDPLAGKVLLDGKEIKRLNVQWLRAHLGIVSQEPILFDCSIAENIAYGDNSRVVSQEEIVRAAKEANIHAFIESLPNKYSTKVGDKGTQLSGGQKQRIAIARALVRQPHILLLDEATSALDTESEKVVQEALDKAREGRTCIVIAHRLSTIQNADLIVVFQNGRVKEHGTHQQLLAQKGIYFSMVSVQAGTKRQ
T2 sequence (P08183 whole entry): as above

SMILES: C[C@]12C[C@H](O)[C@H]3[C@@H](CCC4=CC(=O)CC[C@@]43C)[C@@H]1CC[C@@H]2C(=O)CO [Corticosterone]
- toxicity to cells (MTS cell viability) (mouse primary astrocytes): not toxic
- IC50 (Oct-1): 3.2 µM
- IC50 (Oct-2): 1.3 µM
- IC50 (Oct-3): 0.2 µM
- toxicity to cells (MTS cell viability) (bEnd.3 cells; [3]): not toxic

SMILES: CNCCCN1c2ccccc2CCc2ccccc21 [desipramine]
- toxicity to cells (MTS cell viability) (bEnd.3 cells; 200 µM, 4 h incubation): toxic; also recorded: significantly affected
- toxicity to cells (MTS cell viability) (bEnd.3 cells; 100 µm, 4 h incubation): significantly affected

- Metformin PC, A > B, +CsA (P-GP; MDR1-MDCK, 10 µM MF, 120 min, with CsA 10 µM): 3.28 ± 0.06 1 × 10^−7 cm/s
- interaction with the efflux transporter P-GP (P-GP; P-GP overexpressing cell line): does not interact
- Papp B→A at 120 min, 10 µM (P-gp (MDR1)): 0.163 ± 0.006 ×10⁻⁶ cm/s
- Papp A→B at 120 min, 10 µM (P-gp (MDR1); without CsA): 0.258 ± 0.018 ×10⁻⁶ cm/s
SMILES: CN(C)C(=N)N=C(N)N [MF, metformin]
- toxicity to cells (MTS cell viability) (mouse primary astrocytes): not toxic
- Km (Oct-1; [4]): 3.1 mM
- Km (Oct-2; [4]): 600 µM
- Km (Oct-3; [4]): 2.6 mM
- IC50 (hOCT2): ~2 mM
- steady-state concentration [1]: 1.8 µg/mL and 13 µM
- toxicity to cells (MTS cell viability) (bEnd.3 cells; [3]): not toxic

SMILES: O=C1c2c(O)ccc(O)c2C(=O)c2c(NCCNCCO)ccc(NCCNCCO)c21 [Mitoxantrone]
- toxicity to cells (MTS cell viability) (mouse primary astrocytes): not toxic
- IC50 for Oct1 lower than for Oct2 and Oct3 (selectivity) (Oct-1; estimated IC50): 40–60 fold
- inhibition of the respective transporter (Oct1) (Oct-1; mitoxantrone at 25 µM, based on Table 1): > 80%
- IC50 (Oct-1): 3 µM
- IC50 (Oct-2): 135 µM
- IC50 (Oct-3): 174 µM
- toxicity to cells (MTS cell viability) (bEnd.3 cells; [3]): not toxic

SMILES: O=C([O-])c1ccccc1-c1c2ccc(=O)cc-2oc2cc([O-])ccc12.[Na+].[Na+] [NaF, sodium fluorescein]
- PC of NaF compared with [14C] sucrose [2]: no statistically significant difference

SMILES: C[n+]1ccc(-c2ccccc2)cc1 [MPP+]
- toxicity to cells (MTS cell viability) (bEnd.3 cells; 5 mM, 4 h incubation): toxic; also recorded: significantly affected

From article PMC10220878 (Pharmaceutics, 2023)
